From patent US6350907B1, “Matrix metalloprotease inhibitors” (Pfizer Inc, priority 1998, dated 2002)
Values belong to the compound of their own block, whether it stands above or below them.

Experiments:
MMP-12 = biological target: T1, MMP-12 (Homo sapiens, UniProt P39900); assay: Inhibition of MMP-12 (Human Macrophage Elastase), cleavage of fluorogenic peptide; assay type: biochemical; conditions: x = 12; read-out: MMP-12 inhibitor IC50
T1 construct: Catalytic domain MMP-12 (200 μg/ml) was used
T1 sequence (P39900 106-263 limits assumed): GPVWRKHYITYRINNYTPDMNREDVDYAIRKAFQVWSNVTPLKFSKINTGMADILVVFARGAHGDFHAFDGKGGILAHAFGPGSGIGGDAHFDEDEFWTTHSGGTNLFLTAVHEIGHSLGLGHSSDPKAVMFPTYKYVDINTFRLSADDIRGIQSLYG
Procedure: (§1) The ability of compounds to inhibit the cleavage of fluorogenic peptides by MMPs 1, 2, 3, 9 12, 13 and 14 is described below.
Inhibition of MMP-12 (Human Macrophage Elastase)
Catalytic domain MMP-12 (200 μg/ml) was used. MMP-12 was diluted in Tris-HCl assay buffer (50 mM Tris, 200 mM NaCl, 5 mM CaCl2, 20 μM ZnSO4, 0.02% Brij 35) pH 7.4 to 240 ng/ml. The final concentration of enzyme used in the assay was 60 ng/ml.
The fluorogenic substrate used in this assay was DNP-Pro-Cha-Gly-Cys(Me)-His-Ala-Lys(NMA)-NH2. The final substrate concentration used in the assay was 10 μM.
(§2) (iii) Determination of Enzyme Inhibition
Test compounds were dissolved in dimethyl sulphoxide and diluted with assay buffer so that no more than 1% dimethyl sulphoxide was present. Test compound and enzyme were added to each well of a 96 well plate and allowed to equilibrate for 15 minutes at room temperature in an orbital shaker prior to the addition of substrate. Plates were then incubated for 2 hours at room temperature prior to the determination of fluorescence (substrate cleavage) using a fluorimeter at an excitation wavelength of 360 nm and emission wavelength of 460 nm.

MMP-2 = biological target: T2, MMP-2 (Homo sapiens, UniProt P08253); assay: Inhibition of MMP-2, cleavage of fluorogenic peptide; assay type: biochemical; conditions: x = 2; read-out: MMP-2 inhibitor IC50
T2 construct: Catalytic domain MMP-2, MMP-3 and MMP-9 were prepared at Pfizer Central Research; made in house
T2 sequence (P08253 110-446 limits assumed): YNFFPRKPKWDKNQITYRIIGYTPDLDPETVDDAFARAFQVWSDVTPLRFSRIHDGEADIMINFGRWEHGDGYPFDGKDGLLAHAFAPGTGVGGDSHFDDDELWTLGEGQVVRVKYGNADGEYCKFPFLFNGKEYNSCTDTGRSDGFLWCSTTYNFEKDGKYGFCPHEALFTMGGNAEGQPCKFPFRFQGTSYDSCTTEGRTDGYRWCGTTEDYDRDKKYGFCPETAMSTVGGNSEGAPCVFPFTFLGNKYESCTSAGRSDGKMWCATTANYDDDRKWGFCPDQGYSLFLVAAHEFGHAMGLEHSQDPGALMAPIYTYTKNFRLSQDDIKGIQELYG
Procedure: as §1
(§3) The assays for MMPs 2, 3, 9, and 14 are based upon the original protocol described by Knight et al. (Fed.Euro.Biochem.Soc., 296 (3), 263-266; 1992) with the slight modifications given below.
(§4) Catalytic domain MMP-2, MMP-3 and MMP-9 were prepared at Pfizer Central Research. […] MMP-3 was activated by the addition of 2 mM APMA, followed by incubation for 3 hours at 37° C. The enzymes were then diluted in Tris-HCl assay buffer (100 mM Tris, 100 mM NaCl, 10 mM CaCl2 and 0.16% Brij 35, pH 7.5), to a concentration of 10 nM. The final concentration of enzyme used in the assays was 1 nM.
(§5) The fluorogenic substrate used in this screen was Mca-Arg-Pro-Lys-Pro-Tyr-Ala-Nva-Trp-Met-Lys(Dnp)-NH2 (Bachem Ltd, Essex, UK) as originally described by Nagase et al (J.Biol.Chem., 269(33), 20952-20957, 1994). […] The final substrate concentration used in the assay was 5 μM. […]
(§6) Test compounds were dissolved in dimethyl sulphoxide and diluted with test buffer solution (as above) so that no more than 1% dimethyl sulphoxide was present. […] Plates were then incubated for 1 hour at 37° C. prior to determination of fluorescence using a fluorimeter (Fluostar; BMG LabTechnologies, Aylesbury, UK) at an excitation wavelength of 328 nm and emission wavelength of 393 nm.

MMP-3 = biological target: T3, MMP-3 (Homo sapiens, UniProt P08254); assay: Inhibition of MMP-3, cleavage of fluorogenic peptide; assay type: biochemical
T3 construct: Catalytic domain MMP-2, MMP-3 and MMP-9 were prepared at Pfizer Central Research; made in house
T3 sequence (P08254 100-272 limits assumed): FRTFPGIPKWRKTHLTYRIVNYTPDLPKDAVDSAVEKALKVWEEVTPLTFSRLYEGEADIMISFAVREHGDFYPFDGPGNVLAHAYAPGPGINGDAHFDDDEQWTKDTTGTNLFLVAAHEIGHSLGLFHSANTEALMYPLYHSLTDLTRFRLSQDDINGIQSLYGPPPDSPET
Procedure: as §1, §4
The final substrate concentration used in the assay was 5 μM.
as §2
Test compounds were dissolved in dimethyl sulphoxide and diluted with test buffer solution (as above) so that no more than 1% dimethyl sulphoxide was present. Test compound and enzyme were added to each well of a 96 well plate and allowed to equilibrate for 15 minutes at 37° C. in an orbital shaker prior to the addition of substrate.

MMP-9 = biological target: T4, MMP-9 (Homo sapiens, UniProt P14780); assay: Inhibition of MMP-9, cleavage of fluorogenic peptide; assay type: biochemical; conditions: x = 9; read-out: MMP-9 inhibitor IC50
T4 construct: Catalytic domain MMP-2, MMP-3 and MMP-9 were prepared at Pfizer Central Research; made in house
T4 sequence (P14780 107-444 limits assumed): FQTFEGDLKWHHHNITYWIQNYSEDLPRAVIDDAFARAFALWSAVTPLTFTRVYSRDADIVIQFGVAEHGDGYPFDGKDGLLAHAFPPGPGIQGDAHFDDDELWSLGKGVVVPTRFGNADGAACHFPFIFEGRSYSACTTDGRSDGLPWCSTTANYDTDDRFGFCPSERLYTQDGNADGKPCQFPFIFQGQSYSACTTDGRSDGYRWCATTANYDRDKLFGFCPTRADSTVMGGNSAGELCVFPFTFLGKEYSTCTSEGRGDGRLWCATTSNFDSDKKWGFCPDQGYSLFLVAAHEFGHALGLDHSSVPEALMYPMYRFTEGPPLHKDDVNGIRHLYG
Procedure: as §1, §3, §4, §5, §6

MMP-13 = biological target: T5, MMP-13 (Homo sapiens, UniProt P45452); assay: Inhibition of MMP-13, cleavage of fluorogenic peptide; assay type: biochemical; conditions: x = 13; read-out: MMP-13 inhibitor IC50
T5 construct: purchased PanVera Corporation (Madison, Wis.)
Procedure: as §1
Human recombinant MMP-13 was prepared by PanVera Corporation (Madison, Wis.) and characterized at Pfizer (Groton, Conn.). A 1.9 mg/ml stock was activated with 2 mM APMA for 2 hours at 37° C. MMP-13 was then diluted in assay buffer (50 mM Tris, 200 mM NaCl, 5 mM CaCl2, 20 μM ZnCl2 and 0.02% Brij 35) at pH 7.5 to a concentration of 5.3 nM. The final concentration of enzyme used in the assay was 1.3 nM.
The fluorogenic substrate used in this screen was Dnp-Pro-Cha-Gly-Cys(Me)-His-Ala-Lys(NMA)-NH2. The final substrate concentration used in the assay was 10 μM.
as §2
Test compounds were dissolved in dimethyl sulphoxide and diluted with assay buffer so that no more than 1% dimethyl sulphoxide was present. Test compound and enzyme were added to each well of a 96 well plate. The addition of substrate to each well initiated the reaction. Fluorescence intensity was determined on a 96 well plate fluorometer (Cytofluor II; PerSeptive Biosystems, Inc, Framingham, Mass.) at an excitation wavelength of 360 nm and emission wavelength of 460 nm.

MMP-14 = biological target: T6, MMP-14 (Homo sapiens, UniProt P50281); assay: Inhibition of MMP-14, cleavage of fluorogenic peptide; assay type: biochemical; conditions: x = 14; read-out: MMP-14 inhibitor IC50
T6 construct: Catalytic domain MMP-14 was purchased from Prof Tschesche; purchased Prof Tschesche, Department of Biochemistry, Faculty of Chemistry, University of Bielefeld, Germany
Procedure: as §1, §3
Test compounds were dissolved in dimethyl sulphoxide and diluted with test buffer solution (as above) so that no more than 1% dimethyl sulphoxide was present. Test compound and enzyme were added to each well of a 96 well plate and allowed to equilibrate for 15 minutes at 37° C. in an orbital shaker prior to the addition of substrate. Plates were then incubated for 1 hour at 37° C. prior to determination of fluorescence using a fluorimeter (Fluostar; BMG LabTechnologies, Aylesbury, UK) at an excitation wavelength of 328 nm and emission wavelength of 393 nm.
Catalytic domain MMP-14 was purchased from Prof Tschesche, Department of Biochemistry, Faculty of Chemistry, University of Bielefeld, Germany. A 10 μM enzyme stock solution was activated for 20 minutes at 25° C. following the addition of 5 μg/ml of trypsin (Sigma, Dorset, UK). […]

[1] = test system: endothelial cell invasion of basement membrane; conditions: thereby inhibiting angiogenesis; cited from earlier work
keratinocyte migration = conditions: in vitro; cited from earlier work

IC50 (MMP-12): 85 nM | IC50 (MMP-2): 10800 nM | 3/2sel: Selectivity for MMP-3 over MMP-2 (MMP-3): 107 | IC50 (MMP-3): 101 nM
Structure (SMILES): Cc1cc(CCC[C@H](CC(=O)O)C(=O)N[C@H](C(=O)N[C@H](C)c2ccccc2)C(C)(C)C)ccc1-c1ccccc1 [Example 1, (3R)-3-({[(1S)-2,2-dimethyl-1-({[(1R)-1-phenylethyl]amino}carbonyl)propyl]amino}carbonyl)-6-[(3-methyl-4-phenyl)phenyl]hexanoic acid]

IC50 (MMP-9): 1910 nM | IC50 (MMP-13): 130 nM | IC50 (MMP-14): 5650 nM
Structure (SMILES): C[C@@H](NC(=O)[C@@H](NC(=O)[C@H](CCCc1ccc(-c2ccccc2)c(Cl)c1)CC(=O)NO)C(C)(C)C)c1ccccc1 [Example 2, (2R)-2-{3-[3-Chloro-(4-phenyl)phenyl]propyl}-N1-[(1S)-2,2-dimethyl-1-({[(1R)-1-phenylethyl]amino}carbonyl)propyl]-(N4-hydroxy)butanediamide.]

Structure (SMILES): CNC(=O)[C@H](Cc1ccccc1)NC(=O)[C@H](CC(C)C)[C@H](CSc1cccs1)C(=O)NO [BB94, (2S,3R)-5-methyl-3-{[(1S)-1-(methylcarbamoyl)-2-phenylethyl]carbamoyl}-2-[(2-thienylthio)methyl]hexanohydroxamic acid]
Inhibition of endothelial cell invasion of basement membrane [1]: inhibits endothelial cell invasion of basement membrane

Structure (SMILES): CNC(=O)[C@H](Cc1ccc(OC)cc1)NC(=O)[C@@H](CC(=O)NO)CC(C)C [SC44463]
Inhibition of keratinocyte migration on a collagen type I matrix (keratinocyte migration): completely inhibited
